What was measured:
K-Ras G12V = biological target: T1, K-Ras G12V (Homo sapiens, UniProt P01116, G12V); assay: HTRF resonance energy transfer assay, K-Ras G12V / SOS1 interaction; format: biochemical; conditions: HTRF assay of Example 5; read-out: IC50 against K-Ras G12V
T1 construct: made in house; host or cells: E. coli BL21 (DE3)
In short: (§1)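 Read-out: HTRF 665/620 nm ratio (excitation 337 nm) after roughly 10 min or longer incubation, used to derive IC50. Donor anti-GST-Eu on GST-K-Ras; acceptor anti-6His-XL665 on His-hSOS1. Duplicate dose series from 10 μM down to 0.01 μM.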

SW620 cells = assay: Ras cellular assay, growth of cells with K-Ras G12V mutation (CellTiter-Glo); format: cell-based; conditions: Homo sapiens, SW-620; cell growth, Example 9, G12V mutation; read-out: IC50 against SW620 cells
Procedure: For example, this assay can be also used to assess a selective growth inhibition of a mutant Ras protein relative to a wildtype, or relative to a different mutant Ras protein.
SW620 (ATCC CCL-227) and Capan-1 (ATCC HTB-79) cell lines comprise a G12V mutation and can be used to assess Ras cellular signaling in vitro, e.g., in response to the compounds herein. SW620 culture medium is prepared with RPMI-1640 and 10% heat-inactivated FBS. Capan-1 culture medium is prepared with RPMI-1640 and 10% heat-inactivated FBS. A CellTiter-Glo (CTG) luminescent based assay (Promega) is used to assess growth of the cells, as a measurement of the ability of the compounds herein to inhibit Ras signaling in the cells. The cells (e.g., 800 per well) are seeded in their respective culture medium in standard tissue culture-treated 384-well format plates (Falcon #08-772-116) or ultra-low attachment surface 384-well format plates (S-Bio #MS-9384WZ). The day after plating, cells are treated with a dilution series (e.g., a 10 point 3-fold dilution series) of the compounds herein (e.g., approximately 40 μL final volume per well). Cell viability can be monitored (e.g., approximately 6 days later) according to the manufacturer's recommended instructions, where the CellTiter-Glo reagent is added (e.g., approximately 10 μL), vigorously mixed, covered, and placed on a plate shaker (e.g., approximately for 20 min) to ensure sufficient cell lysis prior to assessment of luminescent signal. The IC50 values are determined using the four parameter fit. The resulting IC50 value is a measurement of the ability of the compounds herein to reduce cell growth of Ras-driven cells (e.g., tumor cell lines) in vitro and/or in vivo.

K-Ras G12S = biological target: T2, K-Ras G12S (Homo sapiens, UniProt P01116, G12S); assay: HTRF resonance energy transfer assay, K-Ras G12S / SOS1 interaction; format: biochemical; conditions: HTRF assay of Example 5; read-out: IC50 against K-Ras G12S
T2 construct: made in house; host or cells: E. coli BL21 (DE3)
In short: as §1

K-Ras WT = biological target: T3, K-Ras WT (Homo sapiens, UniProt P01116); assay: HTRF resonance energy transfer assay, K-Ras WT / SOS1 interaction; format: biochemical; conditions: HTRF assay of Example 5; read-out: IC50 against K-Ras WT
T3 construct: made in house; host or cells: E. coli BL21 (DE3)
In short: as §1

K-Ras G12D = biological target: T4, K-Ras G12D (Homo sapiens, UniProt P01116, G12D); assay: HTRF resonance energy transfer assay, K-Ras G12D / SOS1 interaction; format: biochemical; conditions: HTRF assay of Example 5; read-out: IC50 against K-Ras G12D
T4 construct: made in house; host or cells: E. coli BL21 (DE3)
In short: as §1

T2 sequence (P01116 1-188 isoform P01116-2 G12S): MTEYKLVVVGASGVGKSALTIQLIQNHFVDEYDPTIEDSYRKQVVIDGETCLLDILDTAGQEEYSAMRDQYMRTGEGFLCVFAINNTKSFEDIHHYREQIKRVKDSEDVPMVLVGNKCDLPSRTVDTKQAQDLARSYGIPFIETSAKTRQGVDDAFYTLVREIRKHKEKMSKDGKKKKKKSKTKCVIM
T4 sequence (P01116 1-188 isoform P01116-2 G12D): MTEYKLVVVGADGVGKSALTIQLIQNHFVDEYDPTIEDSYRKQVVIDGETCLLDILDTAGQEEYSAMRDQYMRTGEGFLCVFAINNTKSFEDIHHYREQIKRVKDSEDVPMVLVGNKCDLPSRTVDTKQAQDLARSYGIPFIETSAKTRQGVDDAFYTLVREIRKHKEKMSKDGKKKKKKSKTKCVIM
T3 sequence (P01116 1-188 isoform P01116-2): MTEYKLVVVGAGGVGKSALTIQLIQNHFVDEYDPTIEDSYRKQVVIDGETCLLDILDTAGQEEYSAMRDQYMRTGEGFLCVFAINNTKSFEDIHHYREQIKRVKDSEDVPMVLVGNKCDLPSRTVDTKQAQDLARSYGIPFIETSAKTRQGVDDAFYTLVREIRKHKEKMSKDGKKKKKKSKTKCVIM
T1 sequence (P01116 1-188 isoform P01116-2 G12V): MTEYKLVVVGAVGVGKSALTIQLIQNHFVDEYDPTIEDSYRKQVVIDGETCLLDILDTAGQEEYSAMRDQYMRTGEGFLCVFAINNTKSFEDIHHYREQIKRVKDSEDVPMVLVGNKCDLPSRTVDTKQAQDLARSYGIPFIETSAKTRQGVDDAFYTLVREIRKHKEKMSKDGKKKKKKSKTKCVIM

Row | SMILES | IC50 (K-Ras G12V) | IC50 (SW620 cells) | IC50 (K-Ras G12S) | IC50 (K-Ras WT) | IC50 (K-Ras G12D)
1 | N#Cc1c(N)sc2c(F)ccc(-c3c(Cl)c4c5c(nc(OC[C@@]67CCCN6C[C@H](F)C7)nc5c3F)N(C3CCC(N)C3)CCO4)c12 (stereo partly drawn) [Compound 907, 2-amino-4-(4-(3-aminocyclopentyl)-8-chloro-10-fluoro-2-(((2R,7aS)-2-fluorotetrahydro-1H-pyrrolizin-7a(5H)-yl)methoxy)-5,6-dihydro-4H-[1,4]oxazepino[5,6,7-de]quinazolin-9-yl)-7-fluorobenzo[b]thiophene-3-carbonitrile] | < 100 nM | < 5 µM | < 100 nM | < 100 nM | < 100 nM
2 | CC[C@H]1COc2c(Cl)c(-c3ccc(F)c4sc(N)c(C#N)c34)c(F)c3nc(OC[C@@]45CCCN4C[C@H](F)C5)nc(c23)N1CC(F)F [Compound 619, 2-amino-4-((5S)-8-chloro-4-(2,2-difluoroethyl)-5-ethyl-10-fluoro-2-(((2R,7aS)-2-fluorotetrahydro-1H-pyrrolizin-7a(5H)-yl)methoxy)-5,6-dihydro-4H-[1,4]oxazepino[5,6,7-de]quinazolin-9-yl)-7-fluorobenzo[b]thiophene-3-carbonitrile] | < 100 nM | < 5 µM | < 100 nM | < 100 nM | < 100 nM
3 | N#Cc1c(N)sc2c(F)ccc(-c3c(Cl)c4c5c(nc(OC[C@@]67CCCN6C[C@H](F)C7)nc5c3F)N(CC3CC3C#N)[C@@H](C3(O)CC3)CO4)c12 (single isomer, unassigned) [Compound 821] | < 100 nM | < 5 µM | < 100 nM | < 100 nM | < 100 nM
4 | COC(C)[C@H]1COc2c(Cl)c(-c3ccc(F)c4sc(N)c(C#N)c34)c(F)c3nc(OC[C@@]45CCCN4C[C@H](F)C5)nc(c23)N1CC(F)F (stereo partly drawn) [Compound 630, 2-amino-4-((5R)-8-chloro-4-(2,2-difluoroethyl)-10-fluoro-2-(((2R,7aS)-2-fluorotetrahydro-1H-pyrrolizin-7a(5H)-yl)methoxy)-5-(1-methoxyethyl)-5,6-dihydro-4H-[1,4]oxazepino[5,6,7-de]quinazolin-9-yl)-7-fluorobenzo[b]thiophene-3-carbonitrile] | < 100 nM | < 5 µM | < 100 nM | < 100 nM | < 100 nM
5 | N#Cc1c(N)sc2c(F)ccc(-c3c(Cl)c4c5c(nc(OC[C@@]67CCCN6C[C@H](F)C7)nc5c3F)N(CC(F)F)[C@@H](CNC(=O)[C@H]3CN3)CO4)c12 [Compound 1053, (2R)-N-(((5S)-9-(2-amino-3-cyano-7-fluorobenzo[b]thiophen-4-yl)-8-chloro-4-(2,2-difluoroethyl)-10-fluoro-2-(((2R,7aS)-2-fluorotetrahydro-1H-pyrrolizin-7a(5H)-yl)methoxy)-5,6-dihydro-4H-[1,4]oxazepino[5,6,7-de]quinazolin-5-yl)methyl)aziridine-2-carboxamide] | < 100 nM | < 5 µM | < 100 nM | < 100 nM | < 100 nM
6 | CC1COc2c(Cl)c(-c3ccc(F)c4sc(N)c(C#N)c34)c(F)c3nc(OC[C@@]45CCCN4C[C@H](F)C5)nc(c23)N1CC(F)F (single isomer, unassigned) [Compound 616] | < 100 nM | < 5 µM | < 100 nM | < 100 nM | < 100 nM
7 | N#Cc1c(N)sc2c(F)ccc(-c3c(Cl)c4c5c(nc(OC[C@@]67CCCN6C[C@H](F)C7)nc5c3F)N(CC3CCCN3C(=O)C3CN3)CCO4)c12 (stereo partly drawn) [Compound 811, 2-amino-4-(4-((1-(aziridine-2-carbonyl)pyrrolidin-2-yl)methyl)-8-chloro-10-fluoro-2-(((2R,7aS)-2-fluorotetrahydro-1H-pyrrolizin-7a(5H)-yl)methoxy)-5,6-dihydro-4H-[1,4]oxazepino[5,6,7-de]quinazolin-9-yl)-7-fluorobenzo[b]thiophene-3-carbonitrile] | < 100 nM | < 5 µM | < 100 nM | < 100 nM | < 100 nM

Results, then the molecule that gave them:

Row | IC50 (K-Ras G12V) | IC50 (SW620 cells) | IC50 (K-Ras G12S) | IC50 (K-Ras WT) | IC50 (K-Ras G12D) | SMILES
8 | < 100 nM | < 5 µM | < 100 nM | < 100 nM | < 100 nM | N#Cc1c(N)sc2c(F)ccc(-c3c(Cl)c4c5c(nc(OC[C@@]67CCCN6C[C@H](F)C7)nc5c3F)N(Cc3ccnn3CC(F)F)CCO4)c12 [Compound 720, 2-amino-4-(8-chloro-4-((1-(2,2-difluoroethyl)-1H-pyrazol-5-yl)methyl)-10-fluoro-2-(((2R,7aS)-2-fluorotetrahydro-1H-pyrrolizin-7a(5H)-yl)methoxy)-5,6-dihydro-4H-[1,4]oxazepino[5,6,7-de]quinazolin-9-yl)-7-fluorobenzo[b]thiophene-3-carbonitrile]
9 | < 100 nM | < 5 µM | < 100 nM | < 100 nM | < 100 nM | Cn1nc(N)cc1CN1CCOc2c(Cl)c(-c3ccc(F)c4sc(N)c(C#N)c34)c(F)c3nc(OC[C@@]45CCCN4C[C@H](F)C5)nc1c23 [Compound 770, 2-amino-4-(4-((3-amino-1-methyl-1H-pyrazol-5-yl)methyl)-8-chloro-10-fluoro-2-(((2R,7aS)-2-fluorotetrahydro-1H-pyrrolizin-7a(5H)-yl)methoxy)-5,6-dihydro-4H-[1,4]oxazepino[5,6,7-de]quinazolin-9-yl)-7-fluorobenzo[b]thiophene-3-carbonitrile]
10 | < 100 nM | < 5 µM | < 100 nM | < 100 nM | < 100 nM | N#Cc1c(N)sc2c(F)ccc(-c3c(Cl)c4c5c(nc(OC[C@@]67CCCN6C[C@H](F)C7)nc5c3F)N(CC(F)F)[C@@H](C=C(F)F)CO4)c12 (single isomer, unassigned) [Compound 751]
11 | < 100 nM | < 5 µM | < 100 nM | < 100 nM | < 100 nM | N#Cc1c(N)sc2c(F)ccc(-c3c(Cl)c4c5c(nc(OC[C@@]67CCCN6C[C@H](F)C7)nc5c3F)N(C3CC3)[C@@H](CNC=O)CO4)c12 [Compound 1084, N-(((5S)-9-(2-amino-3-cyano-7-fluorobenzo[b]thiophen-4-yl)-8-chloro-4-cyclopropyl-10-fluoro-2-(((2R,7aS)-2-fluorotetrahydro-1H-pyrrolizin-7a(5H)-yl)methoxy)-5,6-dihydro-4H-[1,4]oxazepino[5,6,7-de]quinazolin-5-yl)methyl)formamide]
12 | < 100 nM | < 5 µM | < 100 nM | < 100 nM | < 100 nM | C[C@H]1COc2c(Cl)c(-c3ccc(F)c4sc(N)c(C#N)c34)c(F)c3nc(OC[C@@]45CCCN4C[C@H](F)C5)nc(c23)N1CC1CC1C#N (stereo partly drawn) [Compound 818, 2-amino-4-((5S)-8-chloro-4-((2-cyanocyclopropyl)methyl)-10-fluoro-2-(((2R,7aS)-2-fluorotetrahydro-1H-pyrrolizin-7a(5H)-yl)methoxy)-5-methyl-5,6-dihydro-4H-[1,4]oxazepino[5,6,7-de]quinazolin-9-yl)-7-fluorobenzo[b]thiophene-3-carbonitrile]
13 | < 100 nM | < 5 µM | < 100 nM | < 100 nM | < 100 nM | N#Cc1c(N)sc2c(F)ccc(-c3c(Cl)c4c5c(nc(OC[C@@]67CCCN6C[C@H](F)C7)nc5c3F)N([C@H]3CNC[C@@H]3F)CCO4)c12 [Compound 1085, 2-amino-4-(8-chloro-10-fluoro-4-((3S,4S)-4-fluoropyrrolidin-3-yl)-2-(((2R,7aS)-2-fluorotetrahydro-1H-pyrrolizin-7a(5H)-yl)methoxy)-5,6-dihydro-4H-[1,4]oxazepino[5,6,7-de]quinazolin-9-yl)-7-fluorobenzo[b]thiophene-3-carbonitrile]

Reference: patent publication US12209102B2, “Heterocyclic compounds and uses thereof” (Kumquat Biosciences Inc., priority 2022, dated 2025)
